Test results reported in patent US8119684B2, “Thiophene derivatives for up-regulating HLA-DM activity” (Dana-Farber Cancer Institute, Inc., priority 2003, dated 2012).

Legend:
[1] = molecular target: T1, HLA-DM catalyzed peptide exchange on HLA-DR2 (Homo sapiens, UniProt P28067+P28068); assay: Antigen Presentation Screen: fluorescence polarization association assay of Alexa 488-labeled MBP 85-99 binding to HLA-DR2b/CLIP in the presence of HLA-DM; assay type: biochemical
T1 construct: made in house; host or cells: HLA-DM: S2 insect cells; HLA-DR2b: COS cells; peptides synthesized by New England Peptide, Inc
T1 sequence (P28067 27-233 limits assumed): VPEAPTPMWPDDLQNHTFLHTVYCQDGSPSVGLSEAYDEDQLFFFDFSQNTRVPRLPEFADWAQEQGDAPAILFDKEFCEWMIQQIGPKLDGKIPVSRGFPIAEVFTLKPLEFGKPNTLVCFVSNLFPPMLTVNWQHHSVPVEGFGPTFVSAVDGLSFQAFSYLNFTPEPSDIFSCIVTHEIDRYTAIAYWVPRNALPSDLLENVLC
T1 sequence (P28068 19-218 limits assumed): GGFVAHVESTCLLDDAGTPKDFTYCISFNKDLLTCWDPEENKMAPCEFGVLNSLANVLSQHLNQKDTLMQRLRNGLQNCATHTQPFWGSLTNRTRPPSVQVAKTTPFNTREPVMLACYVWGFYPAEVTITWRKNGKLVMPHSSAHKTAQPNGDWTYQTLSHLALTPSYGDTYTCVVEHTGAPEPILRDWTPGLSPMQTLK
Description: In one detailed aspect of the invention, an assay is described below for detecting and monitoring HLA-DM catalyzed peptide exchange. In particular, the kinetics of peptide exchange can be evaluated and the effects on such kinetics of test compounds can be evaluated. A labeled peptide, such as a fluorescently labled MBP peptide, can be visualized binding to isolated HLA-DR2 in the presence of HLA-DM by Fluorescence Polarization (FP). FP can detect the motion of a fluorescently labeled peptide such as MBP (85-99). The FP detected increases when a fluorescently labeled peptide binds to a receptor. This assay may allow peptide binding to HLA-DR2 to be monitored in real time without interrupting the reaction. In this manner, a number of readings can be made at different times during a single assay. This can provide information about the rate of transfer of a peptide, leading to the identification of compounds that increase or decrease the rate of peptide exchange. It may also lead to the identification of compounds that decrease the rate of peptide exchange by directly preventing peptide binding to MHC class II.
In the assay described below (Antigen Presentation Screen), Fluorescence Polarization (FP) can be used to monitor the kinetics, including the exchange rate, of exchanging CLIP for myelin basic protein (MBP) peptide on isolated HLA-DR2. MBP peptide consisting of amino acids 85-99 of Myelin Basic Protein is labeled with the fluorescent dye Alexa 488 at the P5 position. The CLIP may be unlabled. A system of isolated HLA-DR2 containing CLIP and labeled MBP peptide are incubated in the presence of HLA-DM. The system may be exposed to test compounds and FP can be used to measure the rate of exchange of CLIP for MBP for each test compound, including a control. A change in fluorescence polarization is monitored and/or recorded using a 485 nm excitation filter and a 530 nm emission filter in a LJL Analyst. Fluorescence readings taken at time intervals can indicate how fast CLIP is being exchanged for MBP in the presence of HLA-DM.
Proteins: HLA-DR2b containing the CLIP peptide in PBS buffer synthesized by COS cells with covalently linked CLIP peptide. The linker is cut with the addition of 25 U/ml of Thrombin (Novagen 69671) (2 hr incubation at 37° C.) and blocked with Pefablock (Roche 1429-868).
HLA-DM in PBS buffer, synthesized in S2 insect cells. Purified on a anti-FLAG column with a high pH elution (50 mM CAPS pH 11.5)
Peptides: MBP 85-99 (Alexa 488 at P5 position) in H2O
• 1. Add 0.4 μl of library compound in 100% DMSO to wells (see FIG. 7) containing HLA-DR2b. (Library compounds at 50 mM). Also add 0.4 μl DMSO to all control wells during this step. This step can be carried out days before screening commences. • 2. Add 35 μl of 50 mM Citrate pH5.2/150 mM NaCl buffer to wells M23, […], N23 and N24. Add 40 μl of 50 mM Citrate pH 5.2/150 mM NaCl buffer to wells O23, O24, P23 and P24. Add 35 μl of 114 nM HLA-DR2b in 50 mM Citrate pH 5.2/150 mM NaCl buffer to appropriate wells in 384 well plate as shown below in FIG. 9. Make 114 nM HLA-DR2b solution fresh and keep cold until just before addition of library compounds • 5. By hand add 1 μl of MBP 85-99 (unlabeled) titration to control wells as described below in FIG. 10. • 6. Mix HLA-DR2b and compound by shaking with plate shaker for 1 minute. • 7. Incubate HLA-DR2b and compound for 30 minutes at room temperature. • 8. By hand add 5 μl of 80 nM MBP 85-99 (Alexa 488 at P5 position) to control wells (FIG. 11) as described below while plate is incubating at room temperature. • 9. During 30 minute incubation read plates for Fluorescent Intensity using the Analyst (Molecular Devices) Parameters described below. This step is optional if Fluorescent Intensity references have already been read for the compounds being screened. • 10. Add 5 p. 1 of MBP/DM mix (80 nM MBP 85-99 (Alexa 488 at P5 position)/800 nM HLA-DM in 50 mM Citrate pH 5.2/150 mM NaCl buffer) to begin reaction. […]

[2] = molecular target: T1, HLA-DM catalyzed peptide exchange on HLA-DR2; assay: Dissociation assay: MBP peptide dissociating from HLA-DR2 in the presence of HLA-DM and 100-fold excess unlabeled MBP; assay type: biochemical; settings: FIG. 5, F15 versus DMSO
Description: FIG. 5b illustrates graphically a dissociation assay of MBP peptide dissociating from HLA-DR2 in the presence of HLA-DM and 100-fold excess unlabeled MBP in the peptide for both F15 and DMSO;
FIGS. 5a and 5b graphically illustrate the dose reponse curve for compound F15 for disassociation (5a) and association (5b) assays.

## N#CC1=C(SC2CCCCC2)CC(C(=O)O)=C1c1ccc(Cl)cc1 [Compound F15]
[1]; 30 minute sampling time, FIG. 3
  increase in binding (FP) compared to the control: about 25%
[1]; F15 at 10 uM, FIG. 4
  acceleration of peptide exchange over the control (factor): 3
[1]; F15 at 10 uM, increasing levels of DR2b, HLA-DM present, FIG. 4, control Vmax 0.02521
  Vmax (initial velocity of MBP/HLA-DR2 binding): 0.07611
[1]; FIG. 5, F15 versus DMSO
  dose response curve, association assay: substantial effect even at very low concentrations
[1]; association assay, FIG. 3, various concentrations of F15
  concentration at which a significant increase in the rate of peptide exchange is seen (as low as): 1 µM
[1]; over a 6 hour period, FIG. 3
  total amount of peptide exchange compared to the control: about equal
[2]
  dose response curve, dissociation assay: substantial effect even at very low concentrations
